In patent US20240173419A1, “CDK2 DEGRADERS AND USES THEREOF” (Kymera Therapeutics, Inc., priority 2022, published 2024):

Biological target: T1, CDK2 (Homo sapiens, UniProt P24941)
T1 construct: endogenous in cells; host or cells: MKN1 cells
Assay: CDK2 degradation in MKN1 cells (AlphaLISA)
Format: cell-based
Set-up: key to CDK2 degradation 14 h: Mean external-Abs DC50 (nM): A (<100 nM); B (≥100-500 nM); C (>500-1000 nM); D (>1000 nM); E (not achieved)
Conditions: 14 h incubation; for DC50: read-out: CDK2 degradation 14 h: Mean external-Abs DC50
In short: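 MKN1 cells (2e4/well) treated 14 h at 37° C with 11-point 1:5 dilutions (0.001 nM-10 μM, 0.1% DMSO). CDK2 in lysates quantified by AlphaLISA, no-cell background subtracted; DC50 from four-parameter logistic fit.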

Row | Structure (SMILES) | CDK2 degradation 14 h: Average Dmax % | DC50 [nM] | CDK2 degradation 14 h: Mean external-Abs DC50 (nM)
1 | Cc1cc(S(=O)(=O)C2CC3(CCN(CC4CCN(c5ccc6c(N7CCC(=O)NC7=O)nn(C)c6c5F)CC4)CC3)C2)ccc1Nc1ncc2cc(Cl)c(=O)n(C3CCCC3)c2n1 [I-325] | A (A (>75% o)) | < 100 | 
2 | Cc1cc(S(=O)(=O)C2CC3(CCN(CC4CCN(c5ccc(NC6CCC(=O)NC6=O)c(Cl)c5)CC4)CC3)C2)ccc1Nc1ncc2cc(Cl)c(=O)n(C3CCCC3)c2n1 (stereo not shown) [I-329] | A (A (>75% o)) | < 100 | 
3 | Cc1cc(S(=O)(=O)C2CC3(CCN(CC4CCN(c5cccc(NC6CCC(=O)NC6=O)c5C)CC4)CC3)C2)ccc1Nc1ncc2cc(Cl)c(=O)n(C3CCCC3)c2n1 (stereo not shown) [I-332] | A (A (>75% o)) | 100 to 500 | 
4 | Cc1cc(S(=O)(=O)N2CCC(CN(C)C3CCN(c4cccc5c4n(C)c(=O)n5C4CCC(=O)NC4=O)CC3)CC2)ccc1Nc1ncc2cc(C(F)(F)F)c(=O)n(C3CCCC3)c2n1 (stereo not shown) [I-341] | A (A (>75% o)) | < 100 | 
5 | Cc1cc(S(=O)(=O)N2CCC(CN(C)C3CCN(c4cccc5c4n(C)c(=O)n5C4CCC(=O)NC4=O)CC3)CC2)ccc1Nc1ncc2cc(F)c(=O)n(C3CCCC3)c2n1 (stereo not shown) [I-342] | A (A (>75% o)) | < 100 | 
6 | Cc1cc(S(=O)(=O)NC2CC3(CCN(CC4CCN(c5cccc6c5n(C)c(=O)n6C5CCC(=O)NC5=O)CC4)CC3)C2)ccc1Nc1ncc2cc(Cl)c(=O)n(C3CCCC3)c2n1 (stereo not shown) [I-347] | A (A (>75% o)) | < 100 | 
7 | Cc1cc(S(=O)(=O)N2CCC(N(CC(F)F)CC3CCN(c4cccc5c4n(C)c(=O)n5C4CCC(=O)NC4=O)CC3)CC2)ccc1Nc1ncc2cc(Cl)c(=O)n(C3CCCC34CC4)c2n1 (stereo not shown) [I-353] | D (D (<25%)) | > 1000 | 
8 | Cc1cc(S(=O)(=O)N2CCC(CN(CC(F)(F)F)C3CCN(c4cccc5c4n(C)c(=O)n5C4CCC(=O)NC4=O)CC3)CC2)ccc1Nc1ncc2cc(Cl)c(=O)n(C3CCCC34CC4)c2n1 (stereo not shown) [I-354] | D (D (<25%)) | > 1000 | 
9 | Cc1cc(S(=O)(=O)N2CCC(N(C)CC3CCN(c4cccc5c4n(C)c(=O)n5C4CCC(=O)NC4=O)CC3)C(F)(F)C2)ccc1Nc1ncc2cc(Cl)c(=O)n(C3CCCC34CC4)c2n1 (stereo not shown) [I-355] | D (D (<25%)) | > 1000 | 
10 | Cc1cc(S(=O)(=O)N2CCC(CN(CC(F)F)C3CCN(c4cccc5c4n(C)c(=O)n5C4CCC(=O)NC4=O)CC3)CC2)ccc1Nc1ncc2cc(Cl)c(=O)n(C3CCCC34CC4)c2n1 (stereo not shown) [I-356] | D (D (<25%)) | > 1000 | 
11 | Cc1cc(S(=O)(=O)N2CCC(N(C)CC3(F)CCN(c4cccc5c4n(C)c(=O)n5C4CCC(=O)NC4=O)CC3)CC2)ccc1Nc1ncc2cc(Cl)c(=O)n(C3CCCC34CC4)c2n1 (stereo not shown) [I-357] | B (B (>50% -75%)) |  | E
12 | Cc1cc(S(=O)(=O)N2CCC(F)(CN(C)C3CCN(c4cccc5c4n(C)c(=O)n5C4CCC(=O)NC4=O)CC3)CC2)ccc1Nc1ncc2cc(Cl)c(=O)n(C3CCCC34CC4)c2n1 (stereo not shown) [I-358] | B (B (>50% -75%)) | 500 to 1000 | 
13 | Cc1cc(S(=O)(=O)N2CCC(N(C)CC3CCN(c4cccc5c4n(C)c(=O)n5C4CCC(=O)NC4=O)CC3)CC2)ccc1Nc1ncc2cc(Cl)c(=O)n(C3CCCC34CC4)c2n1 (stereo not shown) [I-359] | A (A (>75% o)) | < 100 | 
14 | COc1ccc2c(c1N1CCC(N(C)CC3CCN(S(=O)(=O)c4ccc(Nc5ncc6cc(Cl)c(=O)n(C(C)C)c6n5)c(C)c4)CC3)CC1)n(C)c(=O)n2C1CCC(=O)NC1=O (stereo not shown) [I-379] | A (A (>75% o)) | < 100 | 
15 | Cc1cc(S(=O)(=O)N2CCC3(CCN(c4cccc5c4n(C)c(=O)n5C4CCC(=O)NC4=O)CC3)CC2)ccc1Nc1ncc2cc(Cl)c(=O)n(C(C)C)c2n1 (stereo not shown) [I-380] | D (D (<25%)) | > 1000 | 
16 | Cc1cc(S(=O)(=O)N2CCC3(CCN(CC4CCN(c5ccc6c(c5)n(C)c(=O)n6C5CCC(=O)NC5=O)CC4)CC3)CC2)ccc1Nc1ncc2cc(Cl)c(=O)n(C3CCCC3)c2n1 (stereo not shown) [I-381] | A (A (>75% o)) | < 100 | 
17 | Cc1cc(S(=O)(=O)N2CCC(N3CCC(CN(C)c4cccc5c4n(C)c(=O)n5C4CCC(=O)NC4=O)CC3)CC2)ccc1Nc1ncc2cc(C(F)F)c(=O)n(C3CCCC34CC4)c2n1 (stereo not shown) [I-383] | A (A (>75% o)) | < 100 | 
18 | Cc1cc(S(=O)(=O)N2CCN(CCC3CCN(c4cccc5c4n(C)c(=O)n5C4CCC(=O)NC4=O)CC3)CC2)ccc1Nc1ncc2cc(Cl)c(=O)n(C(C)C)c2n1 (stereo not shown) [I-393] | B (B (>50% -75%)) | 100 to 500 | 
19 | Cc1cc(S(=O)(=O)NCCN2CCN(CC3CCN(c4ccc5c(c4)n(C)c(=O)n5C4CCC(=O)NC4=O)CC3)CC2)ccc1Nc1ncc2cc(Cl)c(=O)n(C(C)C)c2n1 (stereo not shown) [I-397] | A (A (>75% o)) | < 100 | 

Row | Structure (SMILES) | CDK2 degradation 14 h: Average Dmax % | DC50 [nM] | CDK2 degradation 14 h: Mean external-Abs DC50 (nM)
20 | Cc1cc(S(=O)(=O)NCCCN2CCN(C3CCN(c4ccc5c(c4)n(C)c(=O)n5C4CCC(=O)NC4=O)CC3)CC2)ccc1Nc1ncc2cc(Cl)c(=O)n(C(C)C)c2n1 (stereo not shown) [I-398] | A (A (>75% o)) | < 100 | 
21 | Cc1cc(S(=O)(=O)NCCCN2CCN(CC3CCN(c4ccc5c(c4)n(C)c(=O)n5C4CCC(=O)NC4=O)CC3)CC2)ccc1Nc1ncc2cc(Cl)c(=O)n(C(C)C)c2n1 (stereo not shown) [I-400] | A (A (>75% o)) | < 100 | 
22 | Cc1cc(S(=O)(=O)NCCOCCOCCNC(=O)COc2ccc(C3CCC(=O)NC3=O)cc2)ccc1Nc1ncc2cc(Cl)c(=O)n(C3CCCC3)c2n1 (stereo not shown) [I-401] | B (B (>50% -75%)) | < 100 | 
23 | Cc1cc(S(=O)(=O)NCCOCC2CCN(c3ccc(N4CCC(=O)NC4=O)cc3)CC2)ccc1Nc1ncc2cc(Cl)c(=O)n(C3CCCC3)c2n1 [I-409] | C (C (>25% -50%)) | > 1000 | 
24 | Cc1cc(S(=O)(=O)NCCCCCC2CCN(c3ccc(N4CCC(=O)NC4=O)cc3)CC2)ccc1Nc1ncc2cc(Cl)c(=O)n(C3CCCC3)c2n1 [I-410] | C (C (>25% -50%)) | > 1000 | 
25 | Cc1cc(S(=O)(=O)NCCCCC2CCN(c3ccc(N4CCC(=O)NC4=O)cc3)CC2)ccc1Nc1ncc2cc(Cl)c(=O)n(C3CCCC3)c2n1 [I-411] | C (C (>25% -50%)) | > 1000 | 
26 | Cc1cc(S(=O)(=O)NCCCC2CCN(c3ccc(N4CCC(=O)NC4=O)cc3)CC2)ccc1Nc1ncc2cc(Cl)c(=O)n(C3CCCC3)c2n1 [I-412] | C (C (>25% -50%)) | > 1000 | 
27 | Cc1cc(S(=O)(=O)NCCC2CCN(c3ccc(N4CCC(=O)NC4=O)cc3)CC2)ccc1Nc1ncc2cc(Cl)c(=O)n(C3CCCC3)c2n1 [I-413] | B (B (>50% -75%)) | > 1000 | 
28 | Cc1cc(S(=O)(=O)N2CCC(CN(C)C3CCN(c4cccn5c(N6CCC(=O)NC6=O)cnc45)CC3)CC2)ccc1Nc1ncc2cc(Cl)c(=O)n(C3CCCC3)c2n1 [I-414] | B (B (>50% -75%)) | 100 to 500 | 
29 | Cc1cc(S(=O)(=O)N2CCC(CN(C)C3CCN(c4cccc5c(N6CCC(=O)NC6=O)cncc45)CC3)CC2)ccc1Nc1ncc2cc(Cl)c(=O)n(C3CCCC3)c2n1 [I-416] | A (A (>75% o)) | < 100 | 
30 | Cc1cc(S(=O)(=O)N2CC3(CC(OCCN4CCC(c5ccc6c(c5)n(C)c(=O)n6C5CCC(=O)NC5=O)CC4)C3)C2)ccc1Nc1ncc2cc(Cl)c(=O)n(C3CCCC3)c2n1 (stereo not shown) [I-418] | C (C (>25% -50%)) | > 1000 | 
31 | Cc1cc(S(=O)(=O)N[C@H]2CC[C@H](OCCN3CCC(c4ccc5c(c4)n(C)c(=O)n5C4CCC(=O)NC4=O)CC3)CC2)ccc1Nc1ncc2cc(Cl)c(=O)n(C3CCCC3)c2n1 (stereo partly shown) [I-419] | A (A (>75% o)) | < 100 | 
32 | Cc1cc(S(=O)(=O)NCCCN(C)C2CCN(c3cccc4c3n(C)c(=O)n4C3CCC(=O)NC3=O)CC2)ccc1Nc1ncc2cc(Cl)c(=O)n(C3CCCC3)c2n1 (stereo not shown) [I-420] | A (A (>75% o)) | < 100 | 
33 | Cc1cc(S(=O)(=O)N2CC(CN(C)C3CCN(c4cccc5c4n(C)c(=O)n5C4CCC(=O)NC4=O)CC3)C2)ccc1Nc1ncc2cc(Cl)c(=O)n(C3CCCC3)c2n1 (stereo not shown) [I-421] | B (B (>50% -75%)) | 100 to 500 | 
34 | Cc1cc(S(=O)(=O)N2CCC(CN(C)C3CN(c4cccc5c4n(C)c(=O)n5C4CCC(=O)NC4=O)C3)CC2)ccc1Nc1ncc2cc(Cl)c(=O)n(C3CCCC3)c2n1 (stereo not shown) [I-422] | C (C (>25% -50%)) |  | E
35 | Cc1cc(S(=O)(=O)N2CCC(CCN3CCN(c4cccc5c4n(C)c(=O)n5C4CCC(=O)NC4=O)CC3)CC2)ccc1Nc1ncc2cc(Cl)c(=O)n(C3CCCC3)c2n1 (stereo not shown) [I-423] | A (A (>75% o)) | < 100 | 
36 | Cc1cc(S(=O)(=O)NCCO[C@H]2CC[C@H](CN3CCC(c4ccc5c(c4)n(C)c(=O)n5C4CCC(=O)NC4=O)CC3)CC2)ccc1Nc1ncc2cc(C(F)F)c(=O)n(C(C)C)c2n1 (stereo partly shown) [I-428] | A (A (>75% o)) | < 100 | 
37 | Cc1cc(S(=O)(=O)NCCO[C@H]2C[C@H](CN3CCC(c4ccc5c(c4)n(C)c(=O)n5C4CCC(=O)NC4=O)CC3)C2)ccc1Nc1ncc2cc(Cl)c(=O)n(C3CCCC3)c2n1 (stereo partly shown) [I-429] | A (A (>75% o)) | < 100 | 
38 | Cc1cc(S(=O)(=O)NCCO[C@H]2CC[C@H](CN3CC(c4ccc5c(c4)n(C)c(=O)n5C4CCC(=O)NC4=O)C3)CC2)ccc1Nc1ncc2cc(Cl)c(=O)n(C3CCCC3)c2n1 (stereo partly shown) [I-430] | A (A (>75% o)) | < 100 | 
